Data published in publication PMC11042424, “Development of a First-in-Class RIPK1 Degrader to Enhance Antitumor Immunity” (Research Square, 2024).

Molecular target: T1, RIPK1 and VHL (Homo sapiens, UniProt P40337+Q13546)
T1 construct: Addgene backbone 87075 (RIPK1 vector, made in house) N273A; host or cells: HEK293T
Experiment: NanoBRET live-cell ternary complex assay
Format: cell-based
Conditions: HEK293 cells co-transfected with nLuc-RIPK1 and VHL-Halo
Method: Figure 2 LD4172, a RIPK1 PROTAC, induces potent and highly specific degradation of RIPK1 in a panel of cell lines. A, Chemical structures of RIPK1 PROTAC, LD4172, and its negative control, LD4172-NC. […] B, Quantification of RIPK1 levels in both Jurkat and B16F10 cells treated with LD4172 at indicated concentrations for 24 h, followed by Western blotting. C, DC50 and Dmax of LD4172 in various human and mouse cell lines. DC50, the drug concentration causing 50% protein degradation; Dmax, the maximum level of protein degradation. D, RIPK1 degradation kinetics induced by LD4172 treatment (1 μM) and resynthesis kinetics upon washout of LD4172 in both Jurkat and B16F10 cells. […] G, Time-resolved fluorescence resonance energy transfer (TR-FRET) based biochemical binding assay for RIPK1. […] In total, ~10,000 proteins were quantified in the proteomics experiment. […]
Human RIPK1 cDNA insert was cloned into pLenti6.2-ccdB-nLuc plasmid (87075, Addgene, a kind gift from Taipale Lab) using gateway cloning kit (11791020, Thermo) and standard protocol to obtain pLenti6.2-RIPK1-nLuc fusion vector. […] Immediately before reading the plate, prepare 4x concentrated NanoGlo nLuc substrate (N157, Promega) was prepared by diluting the stock into Opti-MEM 1,000-fold, and the NanoGlo substrate was then added into each well to bring the final concentration to 1x. […]

Cc1ncsc1-c1ccc([C@H](C)NC(=O)[C@@H]2C[C@@H](O)CN2C(=O)[C@@H](NC(=O)CCCCCCCCCCC(=O)NCCCn2cc(-c3ccc4c(c3)CCN4C(=O)Cc3cccc(OC(F)(F)F)c3)c3c(N)ncnc32)C(C)(C)C)cc1 [LD4172]
ternary complex formation, NanoBRET between RIPK1 and VHL: induced NanoBRET between RIPK1 and VHL
